88 compounds from a melting point compilation (Tetko et al.; mined from patent text by program, amines drawn as free bases though some values may be those of a salt) can be followed below.

The structures appear in SMILES notation.

In turn, `CN(C)C=Nc1nc(=O)n(C(=O)OCC(C)(C)C)cc1F` returned a melting point of 162 to 164 °C.

Turning to `CC(C)(C)c1cc(Br)c(O)c(C=NO)c1`, the melting point was 167 to 169 °C.

For `COc1ccc2cc(-c3ccc(Cl)c(-n4nc(C)nc4C)c3)c(=O)oc2c1`, the melting point is 210 °C.

`O=C(OCC(Cl)(Cl)Cl)N1C2CCC1CC(Sc1ccc(F)cc1)C2` (stereo not drawn) gave a melting point of 65 to 67 °C.

The compound `O=C(CNC(=O)OCc1ccccc1)Nc1ccccc1C(=O)c1cccs1` registered a melting point of 115 to 116 °C.

`NC(=O)CCN1CCN(C(=O)c2cc(C(F)(F)F)cc(C(F)(F)F)c2)[C@H](Cc2c[nH]c3ccccc23)C1`: the melting point fell in the range of 80 to 100 °C.

Take `Nc1cnccc1C(=O)Nc1ccc(-n2nc(C(F)(F)F)cc2C(F)(F)F)cc1`: the melting point is 101 to 102 °C.

For `CCOC(=O)c1c(C)ccc(Cc2c[nH]cn2)c1O`, the melting point was in the range of 101 to 103 °C.

`COc1cc(OCc2ccncc2)ccc1/C=C/c1cc(/C=C/c2c[nH]c3ccccc23)n[nH]1`: the melting point lay within 128 to 139 °C.

Consider `COC(=O)c1cc(-n2c(-c3ccccc3)cc3c2CCc2ccccc2-3)ccc1O`, for which the melting point was 164 to 166 °C.

In turn, `CC(C)(c1ccc(OP(=O)(c2ccccc2)c2ccccc2)cc1)c1ccc(OP(=O)(c2ccccc2)c2ccccc2)cc1` had a melting point of 71 to 72 °C.

For the compound `O=C(O)COc1cccc2c1Cc1sc(SCC(c3ccccc3)c3ccccc3)nc1-2`, the melting point lay within 207 to 210 °C.

Turning to `Nc1c(Cl)cc(-c2nn(C3CCN(Cc4ccc(C(F)(F)F)cc4)CC3)c(=O)o2)c2c1OCCO2`, the melting point was 198 °C.

Compound `CCc1ccc(-c2nc(Cl)c3ccccc3n2)cc1` showed a melting point of 75.5 to 76.5 °C.

The compound `CC(CO)NC(=O)COc1cc(Cl)ccc1C(=O)NCCN1CCN(Cc2ccc(Cl)c(Cl)c2)CC1` (stereo not drawn) showed a melting point of 115 to 116 °C.

Compound `Cc1c(-c2ccccc2)n(-c2ccccc2Cl)c(-c2ccccc2)cc1=O` came in with a melting point of 228 to 231 °C.

Compound `O=C1CCCC(=O)c2cc(OCc3ccccc3)ccc2N1` registered a melting point of 169 to 170 °C.

For `CCOC(=O)C1=C(C)NC(C)=C(C(=O)OCC)C1c1ccccc1/C=C/C(=O)OC(C)(C)C`, the melting point was in the range of 143 to 145 °C.

For `CC1(C)COC1(Cn1cncn1)c1ccc(Cl)cc1` (stereo not drawn), the melting point fell in the range of 90 to 102 °C.

In the case of `CCCCCC(CC(=O)Nc1cc(C(=O)O)ccc1C(C)(C)C)c1ccc(OC)cc1OC` (stereo not drawn), the melting point was 153 to 154 °C.

`N#Cc1ccc2ccc(=O)oc2c1` displayed a melting point of 217 to 225 °C.

`CS(=O)(=O)c1ccc(-n2nc(C(N)=O)cc2-c2ccc(-c3ccco3)cc2)cc1F` showed a melting point of 239 to 240 °C.

In turn, `NCC1CCCN(c2ncc3ncnc(Nc4ccc(F)c(Cl)c4)c3n2)C1` (stereo not drawn) displayed a melting point of 132 to 137 °C.

In turn, `CSc1nc2c(OCc3ccccc3)cccc2n1CCCO` registered a melting point of 106 to 107 °C.

Compound `O=C(O)c1cn(-c2ccnc3ccccc23)c2ccc(F)cc12` displayed a melting point of 148 °C.

`O=C(c1cc(-c2ccc(Cl)cc2)c(N2CCOCC2)s1)c1ccc(Cl)cc1Cl` showed a melting point of 110 °C.

Turning to `O=C1CCCC(=O)N1c1cc(Br)cc(Br)c1`, the melting point was 152 to 154 °C.

`COc1ccc(SC2CC(=O)N2CC(=O)NCCCCCCc2ccc(Cl)cc2)cc1` (stereo not drawn) yielded a melting point of 84 to 86 °C.

As for `COc1ccc(COCc2nc(C(C)C)c(Sc3cc(Cl)cc(Cl)c3)[nH]2)cc1`, the melting point was 96 to 97 °C.

`CCOC(=O)CN(C)CC=CC(=O)Nc1ccc2ncnc(Nc3cccc(Br)c3)c2c1` showed a melting point of 182 to 183 °C.

Take `Fc1ccc(-c2nn3c(c2-c2ccncc2)NCC3)cc1`: the melting point fell in the range of 213 to 214 °C.

Consider `COc1ccccc1-c1c(C#N)nn(-c2c(Cl)cc(C(F)(F)F)cc2Cl)c1N`, for which the melting point came out at 193 °C.

With `CC(C)(C)C(O)C(Oc1ccc(Cl)cc1)n1ccnc1` (stereo not drawn), the melting point lay in the range of 145 to 147 °C.

For the compound `Cc1nccn1-c1nc(-c2ccc(Cl)cc2)c(CCC2=NCCO2)o1`, the melting point fell in the range of 119 to 120 °C.

`CCOc1cccc(Cn2ncc3c(N4CCN(C(=O)OC(C)(C)C)CC4)ncnc32)n1` displayed a melting point of 130 to 132 °C.

Regarding `Cn1cccc(Cc2cc3cccc(-c4cccc(C(=O)NCCO)c4)c3s2)c1=O`, the melting point lay within 173 to 174 °C.

With `CCOc1nsnc1S(C)(=O)=O`, the melting point was 94 to 95 °C.

For `CNC(=O)NC1CCCCC1`, the melting point lay within 135 to 136 °C.

As for `COC(=O)Nc1ccccc1CSc1ncc(C(F)(F)F)cc1Cl`, the melting point was 111 to 113 °C.

In turn, `COC(=O)C(=O)c1c(OC)cc(OCCOc2ccc3ccccc3c2)cc1OC` yielded a melting point of 161 to 162 °C.

`O=C1c2ccc(F)cc2C(=O)N1CC(=O)N1c2ccccc2N(Cc2ccccc2)C(=O)[C@H]2CCC[C@H]21` (relative stereo) displayed a melting point of 235 to 236 °C.

Take `O=C(CCl)Nc1ccccc1O`: the melting point was in the range of 133 to 134 °C.

`CCOc1cccc(C(C)CC(=O)Nc2sc3c(c2C#N)CCNC3)c1` (racemic) displayed a melting point of 178 to 180 °C.

`Fc1ccc2sc(Cl)nc2c1` showed a melting point of 69 °C.

The compound `O=C(NN=C1C=CC=NC1)c1cccnc1` gave a melting point of 213 to 216 °C.

`CC(C)(C)OC(=O)N1CCC2(CC1)CC(=O)N(OCC#N)C2=O` had a melting point of 138 to 139 °C.

As for `N#Cc1c2c(c3c(c1N1CCCC1)CCc1ccccc1-3)-c1ccccc1C2`, the melting point fell in the range of 220 to 222 °C.

The compound `NC(=O)CNC(=O)c1ccnc(-c2cccc3cc(Cc4cccc(C(F)(F)F)c4)sc23)c1` gave a melting point of 176 to 177 °C.

On to `CCOC(=O)c1ccoc1Cn1c(NC2CCN(C(=O)OCC)CC2)nc2ccccc21`, for which the melting point came out at 162 °C.

Compound `O=C(CS(=O)(=O)Cc1cccs1)C12CC3CC(CC(C3)C1)C2` showed a melting point of 95.5 to 98 °C.

`Cc1cc(C)nc(-n2nc(S(=O)(=O)Nc3c(F)cccc3F)nc2C)n1` yielded a melting point of 228 to 230 °C.

As to `COC(=O)C1CCC(OC2=C3N=c4ccccc4=C3C(Cc3ccc(F)cc3)C=C2)O1` (stereo not drawn), the melting point was 85 to 86 °C.

`CCOC(=O)c1[nH]c2c(NS(=O)(=O)c3cccs3)cccc2c1C` gave a melting point of 198 to 199 °C.

As for `CCOC(=O)CCOc1cccc2c1CCC2=O`, the melting point is 90 to 92 °C.

Consider `CCOC(=O)C1=Cc2c(ccc(Cl)c2I)OC1C(F)(F)F` (stereo not drawn), for which the melting point was 117 to 119 °C.

In the case of `CCOC(=O)C(C)=NNc1ccc(Cl)c(F)c1`, the melting point lay in the range of 161 to 163 °C.

As for `CCCCCCCCCCCCCCOc1ccc(CC(=O)Nc2ccccc2CBr)cc1`, the melting point fell in the range of 100 to 103 °C.

Consider `O=C(O)C(=O)c1ccc(OC/C=C/c2ccc(F)cc2)cc1`, for which the melting point is 132 to 133 °C.

In the case of `COC(=O)c1ccc(Cn2ccc(OCc3ccc(F)cc3F)c(Br)c2=O)cc1`, the melting point was in the range of 136 to 139 °C.

Compound `NC(=O)N(O)Cc1cscc1Br` yielded a melting point of 134 to 136 °C.

`Cc1ccccc1C(=O)Nc1ccc(-n2nc(C3CC3)cc2C2CC2)cc1` yielded a melting point of 128 to 130 °C.

In turn, `O=C(Nc1ccccc1)O[C@@H]1CN=C(c2ccc([N+](=O)[O-])cc2)O[C@H]1c1ccccc1` (racemic) gave a melting point of 148 °C.

Take `O=C(Nc1c[nH]nc1C(=O)NCCc1ccccc1)c1ccccn1`: the melting point fell in the range of 214 to 215 °C.

In turn, `CC(=O)Oc1ccc(C(=O)NNC(=O)OC(C)(C)C)cc1OC(C)=O` had a melting point of 78 to 82 °C.

Take `CC(C)(C)OC(=O)NCC(O)c1ccsc1` (stereo not drawn): the melting point lay in the range of 103 to 105 °C.

As to `Cn1c(C(=O)O)c(Oc2ccc(Cl)cc2N)c2ccccc21`, the melting point fell in the range of 204 to 206 °C.

Compound `CCC1c2cccn2-c2ccc(F)cc2N1S(=O)(=O)c1ccc(O)cc1` (stereo not drawn) came in with a melting point of 150 to 152 °C.

For the compound `CCCCn1c(=O)c(C#N)c(N2CCN(C(=O)c3cccs3)CC2)c2cccnc21`, the melting point turned out to be 143 °C.

`CC(C#Cc1ccc(C=Cc2ccc(F)cc2)s1)N(O)C(N)=O` (stereo not drawn) came in with a melting point of 177 °C.

The compound `OCc1ccc2c(Cl)ccnc2c1` displayed a melting point of 138 to 139 °C.

For the compound `CC(C)(C)OC(=O)C(C)(C)ON=C(C(=O)O)c1cccs1`, the melting point was in the range of 201 to 202 °C.

Regarding `CN1CCN(c2cccc3c2C[C@H](NC(=O)c2ccc(F)cc2)CC3)CC1`, the melting point is 189 to 190 °C.

For the compound `CCOC(=O)C1(C)ON=C(C2(C)CC(c3ccc(OC)c(OC4CCCC4)c3)=NO2)O1` (stereo not drawn), the melting point was 139 to 140 °C.

The compound `COc1nc(C)cc2nc(S(=O)(=O)Nc3nn(C)c4ccccc34)nn12` had a melting point of 181 to 183 °C.

Compound `CCOP(=O)(/C=C/c1cn(-c2ccccc2)nc1OCc1ccc(OCc2sc(-c3ccccc3)nc2C)c(OC)c1)OCC` registered a melting point of 113 to 114 °C.

As to `CNc1cc(Cl)cc(N)c1[N+](=O)[O-]`, the melting point came out at 129 °C.

`Nc1nc(O)c2c(n1)CCCS2`: the melting point was > 300 °C.

With `COc1cc(O)c(CN2CCc3cc(O)ccc3C2)c(OC)c1`, the melting point was 109 to 112 °C.

As to `CN1CCc2sc(C=C3C(=O)N4C(C(=O)O)=CSC34)cc2C1` (stereo not drawn), the melting point is > 25 °C.

In the case of `N#Cc1ccc(N(c2ccccc2)n2ccnc2)cc1`, the melting point worked out at 162 °C.

Compound `CC(C)(C)OC(=O)NC1CCN(C(=O)[C@@]23C[C@@H](c4ccccc42)c2ccc(Cl)cc23)CC1` returned a melting point of 154 to 156 °C.

`CC(C)(C)COc1ccc(NC(=O)c2cnn(-c3ccc(F)cc3)c2Cl)cc1C#N`: the melting point lay within 149 to 150 °C.

In turn, `CCc1c(C)oc(-c2ccc(S(C)(=O)=O)cc2)c(Oc2ccc(F)cc2F)c1=O` displayed a melting point of 173 °C.

For the compound `O=S(Cc1cccs1)c1ncc(Br)cn1` (stereo not drawn), the melting point is 108 to 109 °C.

Consider `CC(C)CON(Cc1ccc(F)cc1)C(=O)C1=C(O)C(=O)N(C)C1`, for which the melting point was in the range of 96 to 97 °C.

`CCOC(=O)c1cc([N+](=O)[O-])ccc1F` returned a melting point of 53 to 54 °C.

`COC(=O)[C@H]1CC[C@@H](n2nc(-c3c(-c4ccccc4)nn4ccccc34)ccc2=O)[C@H](O)C1` (relative stereo) registered a melting point of 169 to 172 °C.

As for `CC(=O)N1CC(=O)NC(=O)N1c1cc(Cl)c(Oc2ccc(S(C)(=O)=O)cc2)c(Cl)c1`, the melting point stood at 267 °C.
